Key:
[1] = biological target: T1, human κ opioid receptor (Homo sapiens, UniProt P41145); assay: cAMP accumulation assay (forskolin-induced); type: cell-based; settings: 2 μM forskolin, 30 min; read-out: EC50 for inhibition of forskolin-induced cAMP accumulation
T1 construct: expressed in transfected cells; cell membranes
Method: PathHunter® U2OS OPRK1 β-Arrestin cell line (DiscoverX) was maintained in McCoy’s 5A with 10% FBS, 250 μg/ml Hygromycin B and 500 μg/ml G418. When the cells reached to 80–90% confluence, they were collected and resuspended in HBSS (1X) containing 50 mM HEPES, 5 mM IBMX and 1% BSA stabilizer (lance® UltracAMP Kit, PerkinElmer) by adjusting the cell density to 3 × 10^5 cells/mL. The cells were divided into 384-well white plate (Corning®3572) at a volume of 5 μL, and were treated with compounds and 2 μM forskolin (an inducer of intracellular cAMP formation) for 30 min at room temperature. Subsequently, 5 μL of Eu-cAMP Tracer Working Solution and 5 μL of Ulight-anti-cAMP Working Solution per well were added to reach a final volume of 20 μL. The plate was incubated for 1 h at room temperature in the dark. The cAMP levels were then determined by using a microplate reader with TR-FRET assay ([Wang et al., 2014]). The results was expressed as (1–Signal[compound]/Signal[control]) × 100.

[2] = test system: mice; assay: Locomotor activity test (sedation); settings: 0.4 mg/kg, 15 min post-dosing
[3] = biological target: T2, Protein Tyrosine Kinase, LCK (Homo sapiens, UniProt P06239); assay: In vitro SafetyScreen panel; type: biochemical
T2 construct: Eurofins Discovery (outsourced panel) PP223
Method: (§1) In vitro off-target pharmacological activities of HSK21542 were evaluated on 86 targets using a SafetyScreen panel (Item PP223, target selectivity panel) and the corresponding methods could be found at https://www.eurofinsdiscoveryservices.com/.

[4] = biological target: T3, Cyclooxygenase COX-2 (Homo sapiens, UniProt P35354); assay: In vitro SafetyScreen panel; type: biochemical
T3 construct: Eurofins Discovery (contract panel) Item PP223
Method: as §1

[5] = biological target: T4, Peptidase, CTSG (Cathepsin G) (Homo sapiens, UniProt P08311); assay: In vitro SafetyScreen panel; type: biochemical
T4 construct: Eurofins Discovery (outsourced panel) PP223
Method: as §1

[6] = biological target: T5, Cyclooxygenase COX-1 (Homo sapiens, UniProt P23219); assay: In vitro SafetyScreen panel; type: biochemical
T5 construct: Eurofins Discovery (contract panel) PP223
Method: as §1

[7] = biological target: T6, Protein Tyrosine Kinase, Insulin Receptor (Homo sapiens, UniProt P06213); assay: In vitro SafetyScreen panel; type: biochemical
T6 construct: Eurofins Discovery (outsourced panel) PP223
Method: as §1

[8] = biological target: T7, Monoamine Oxidase MAO-B (Homo sapiens, UniProt P27338); assay: In vitro SafetyScreen panel; type: biochemical
T7 construct: Eurofins Discovery (outsourced panel) PP223
Method: as §1

[9] = biological target: T8, Monoamine Oxidase MAO-A (Homo sapiens, UniProt P21397); assay: In vitro SafetyScreen panel; type: biochemical
T8 construct: Eurofins Discovery (contract panel) Item PP223
Method: as §1

[10] = biological target: T9, Cholinesterase, Acetyl, ACES (Homo sapiens, UniProt P22303); assay: In vitro SafetyScreen panel; type: biochemical
T9 construct: Eurofins Discovery (contract panel) PP223
Method: as §1

[11] = biological target: T1, human κ opioid receptor; assay: [3H]diprenorphine binding assay
[12] = test system: ICR mice; assay: Measurement of respiration (whole body plethysmography); type: in vivo; settings: 2 mg/kg
Method: A whole body plethysmography (DSI, US) was used to measure respiration in freely moving ICR mice (half male and half female) as described previously ([Manglik et al., 2016]; [Hill et al., 2018a]; [Hill et al., 2018b]) with some modifications. The respiratory frequency was recorded and then averaged for over 5-min period. The baseline values were recorded for 10 min before dosing. The mice were then removed from the chambers and given drugs, and respiration was then measured for 45 min.

[13] = test system: C57BL/6J mice; assay: Hot-plate test; type: in vivo; settings: hot-plate test ED50 / writhing test ED50
Method: The hot-plate test was performed according to previous reports ([DeWire et al., 2013]; [Hill et al., 2018a]; [Wang et al., 2018]). Female C57BL/6J mice were individually placed on a hot plate at 56°C and the latency to licking or jumping was then recorded. A cut-off time of 30 s was imposed in order to prevent tissue damage. Before drug administration, the latency of each mouse was measured and defined as the pre-drug value. The animals with a pre-drug value of greater than 20 s were excluded.

T1 sequence (P41145 whole entry): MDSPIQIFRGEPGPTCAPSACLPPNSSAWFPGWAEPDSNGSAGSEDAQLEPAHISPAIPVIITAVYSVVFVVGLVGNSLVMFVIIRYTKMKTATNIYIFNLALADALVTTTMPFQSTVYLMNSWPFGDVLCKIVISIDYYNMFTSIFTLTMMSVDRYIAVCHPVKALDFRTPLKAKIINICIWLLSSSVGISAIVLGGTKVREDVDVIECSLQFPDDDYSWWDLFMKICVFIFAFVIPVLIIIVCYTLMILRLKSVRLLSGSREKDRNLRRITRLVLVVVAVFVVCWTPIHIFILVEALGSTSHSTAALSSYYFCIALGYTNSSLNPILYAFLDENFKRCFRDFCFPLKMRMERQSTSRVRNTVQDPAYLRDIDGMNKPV
T3 sequence (P35354 18-604): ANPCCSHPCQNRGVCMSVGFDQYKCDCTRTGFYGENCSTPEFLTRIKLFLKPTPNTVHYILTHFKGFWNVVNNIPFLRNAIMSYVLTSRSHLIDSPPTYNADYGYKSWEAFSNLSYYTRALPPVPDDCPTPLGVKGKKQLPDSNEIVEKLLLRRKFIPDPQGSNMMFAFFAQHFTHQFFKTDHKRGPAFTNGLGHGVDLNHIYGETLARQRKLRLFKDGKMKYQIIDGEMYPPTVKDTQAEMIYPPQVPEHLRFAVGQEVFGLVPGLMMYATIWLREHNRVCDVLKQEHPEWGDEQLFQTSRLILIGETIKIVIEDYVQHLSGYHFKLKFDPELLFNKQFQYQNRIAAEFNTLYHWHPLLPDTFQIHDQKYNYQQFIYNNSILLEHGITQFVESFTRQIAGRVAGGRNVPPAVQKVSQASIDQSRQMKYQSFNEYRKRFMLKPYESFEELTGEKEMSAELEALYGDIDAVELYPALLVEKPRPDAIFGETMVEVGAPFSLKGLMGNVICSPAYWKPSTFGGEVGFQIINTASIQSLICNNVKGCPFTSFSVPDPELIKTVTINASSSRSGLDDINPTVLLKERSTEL
T7 sequence (P27338 whole entry): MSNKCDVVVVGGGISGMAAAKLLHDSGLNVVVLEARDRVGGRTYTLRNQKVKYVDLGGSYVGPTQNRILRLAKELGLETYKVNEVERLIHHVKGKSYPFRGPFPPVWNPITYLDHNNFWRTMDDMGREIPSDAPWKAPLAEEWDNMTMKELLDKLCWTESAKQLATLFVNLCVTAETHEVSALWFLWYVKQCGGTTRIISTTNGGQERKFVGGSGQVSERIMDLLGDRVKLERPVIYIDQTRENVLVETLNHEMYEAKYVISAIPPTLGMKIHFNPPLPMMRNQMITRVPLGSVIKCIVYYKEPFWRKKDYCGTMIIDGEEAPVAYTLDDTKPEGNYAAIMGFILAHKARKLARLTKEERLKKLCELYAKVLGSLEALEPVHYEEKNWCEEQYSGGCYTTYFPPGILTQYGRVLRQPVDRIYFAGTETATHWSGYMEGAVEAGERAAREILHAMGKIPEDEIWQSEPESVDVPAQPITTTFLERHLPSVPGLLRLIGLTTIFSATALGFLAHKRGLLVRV
T4 sequence (P08311 21-255): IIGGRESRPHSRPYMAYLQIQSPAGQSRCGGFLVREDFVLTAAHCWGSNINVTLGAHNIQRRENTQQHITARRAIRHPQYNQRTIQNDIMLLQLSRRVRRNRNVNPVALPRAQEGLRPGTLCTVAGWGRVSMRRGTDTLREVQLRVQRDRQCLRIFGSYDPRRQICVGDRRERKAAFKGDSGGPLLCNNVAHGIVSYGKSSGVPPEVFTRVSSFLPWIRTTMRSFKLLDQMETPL
T2 sequence (P06239 whole entry): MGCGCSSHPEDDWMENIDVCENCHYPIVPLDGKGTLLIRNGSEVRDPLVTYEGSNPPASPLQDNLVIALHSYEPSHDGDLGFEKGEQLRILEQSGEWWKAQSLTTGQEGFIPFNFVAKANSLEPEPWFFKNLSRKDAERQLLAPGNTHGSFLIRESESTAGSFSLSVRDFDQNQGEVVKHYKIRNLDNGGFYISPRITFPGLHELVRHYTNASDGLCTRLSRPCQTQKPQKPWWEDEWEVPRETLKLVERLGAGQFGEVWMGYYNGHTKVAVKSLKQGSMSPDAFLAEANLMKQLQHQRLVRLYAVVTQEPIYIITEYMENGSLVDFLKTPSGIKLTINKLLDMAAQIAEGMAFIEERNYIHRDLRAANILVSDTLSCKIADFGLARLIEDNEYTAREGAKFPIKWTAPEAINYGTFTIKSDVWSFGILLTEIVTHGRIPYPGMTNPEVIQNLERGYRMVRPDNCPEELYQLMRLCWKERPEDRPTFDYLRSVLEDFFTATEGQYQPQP
T5 sequence (P23219 24-599): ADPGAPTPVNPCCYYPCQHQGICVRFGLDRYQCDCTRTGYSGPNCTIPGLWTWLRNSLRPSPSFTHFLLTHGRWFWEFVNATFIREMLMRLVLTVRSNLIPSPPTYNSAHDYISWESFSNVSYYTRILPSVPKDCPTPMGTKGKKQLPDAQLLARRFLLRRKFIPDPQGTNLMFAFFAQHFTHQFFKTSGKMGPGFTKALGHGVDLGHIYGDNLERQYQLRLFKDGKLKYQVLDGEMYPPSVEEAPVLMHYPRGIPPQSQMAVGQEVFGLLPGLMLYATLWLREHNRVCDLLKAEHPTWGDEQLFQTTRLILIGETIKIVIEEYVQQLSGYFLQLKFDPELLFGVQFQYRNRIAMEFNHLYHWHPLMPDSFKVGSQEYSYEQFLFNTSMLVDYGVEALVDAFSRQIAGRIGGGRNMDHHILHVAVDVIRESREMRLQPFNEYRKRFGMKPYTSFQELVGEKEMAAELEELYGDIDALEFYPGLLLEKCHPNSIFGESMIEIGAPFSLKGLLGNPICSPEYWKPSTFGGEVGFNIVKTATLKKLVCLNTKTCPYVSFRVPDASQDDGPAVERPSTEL
T9 sequence (P22303 32-614): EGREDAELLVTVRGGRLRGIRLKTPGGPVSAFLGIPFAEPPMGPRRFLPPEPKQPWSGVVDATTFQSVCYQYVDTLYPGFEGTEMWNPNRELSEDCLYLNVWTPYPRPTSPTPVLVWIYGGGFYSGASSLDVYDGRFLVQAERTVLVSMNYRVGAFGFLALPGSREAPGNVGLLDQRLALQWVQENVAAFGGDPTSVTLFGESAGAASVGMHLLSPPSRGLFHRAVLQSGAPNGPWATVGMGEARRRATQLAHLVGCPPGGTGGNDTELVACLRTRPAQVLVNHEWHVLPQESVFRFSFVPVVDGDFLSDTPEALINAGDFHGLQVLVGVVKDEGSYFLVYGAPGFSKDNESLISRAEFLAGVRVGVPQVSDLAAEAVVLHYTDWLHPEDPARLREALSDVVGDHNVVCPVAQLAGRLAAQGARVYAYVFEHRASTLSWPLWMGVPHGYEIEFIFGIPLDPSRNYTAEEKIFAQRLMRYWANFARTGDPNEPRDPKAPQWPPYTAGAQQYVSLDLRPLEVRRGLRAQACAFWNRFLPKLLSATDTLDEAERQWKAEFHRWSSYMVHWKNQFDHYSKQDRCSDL
T6 sequence (P06213 28-1382): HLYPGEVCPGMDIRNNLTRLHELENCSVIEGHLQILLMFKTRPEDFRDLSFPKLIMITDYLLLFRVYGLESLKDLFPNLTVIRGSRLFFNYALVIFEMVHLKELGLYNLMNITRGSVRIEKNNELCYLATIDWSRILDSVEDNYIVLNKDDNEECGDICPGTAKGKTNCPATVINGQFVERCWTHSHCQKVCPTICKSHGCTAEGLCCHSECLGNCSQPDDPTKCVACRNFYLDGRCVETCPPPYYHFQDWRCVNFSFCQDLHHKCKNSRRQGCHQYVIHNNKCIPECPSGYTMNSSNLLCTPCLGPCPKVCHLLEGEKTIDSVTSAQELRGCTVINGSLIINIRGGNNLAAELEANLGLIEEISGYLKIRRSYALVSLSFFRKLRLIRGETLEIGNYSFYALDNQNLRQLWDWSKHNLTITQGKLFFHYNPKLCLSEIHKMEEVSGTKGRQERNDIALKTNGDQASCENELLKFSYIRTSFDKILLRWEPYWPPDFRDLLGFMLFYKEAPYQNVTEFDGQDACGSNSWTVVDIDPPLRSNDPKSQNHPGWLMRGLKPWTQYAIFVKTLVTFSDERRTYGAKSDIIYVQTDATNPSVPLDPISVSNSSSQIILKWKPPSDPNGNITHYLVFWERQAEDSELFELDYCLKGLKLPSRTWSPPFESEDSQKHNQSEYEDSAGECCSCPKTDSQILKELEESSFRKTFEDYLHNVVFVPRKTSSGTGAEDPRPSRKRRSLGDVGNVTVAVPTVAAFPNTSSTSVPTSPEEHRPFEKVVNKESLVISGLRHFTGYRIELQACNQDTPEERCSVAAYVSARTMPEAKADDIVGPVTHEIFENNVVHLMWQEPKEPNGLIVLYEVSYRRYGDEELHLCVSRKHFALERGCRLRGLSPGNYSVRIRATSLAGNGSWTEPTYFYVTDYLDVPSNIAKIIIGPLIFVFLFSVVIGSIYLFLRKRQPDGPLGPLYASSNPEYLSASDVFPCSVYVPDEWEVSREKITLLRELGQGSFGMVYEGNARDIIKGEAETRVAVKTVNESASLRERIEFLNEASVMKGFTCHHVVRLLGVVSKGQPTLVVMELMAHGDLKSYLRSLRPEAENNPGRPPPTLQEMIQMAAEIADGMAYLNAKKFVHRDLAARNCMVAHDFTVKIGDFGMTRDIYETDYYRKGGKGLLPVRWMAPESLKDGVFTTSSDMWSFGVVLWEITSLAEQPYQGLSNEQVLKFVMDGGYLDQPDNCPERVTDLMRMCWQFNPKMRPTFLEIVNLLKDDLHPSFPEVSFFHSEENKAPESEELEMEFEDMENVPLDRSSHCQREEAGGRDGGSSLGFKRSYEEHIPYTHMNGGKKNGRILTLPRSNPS

## CC(=O)N1CC2(CCN(C(=O)[C@@H](CCCCN)NC(=O)[C@@H](CC(C)C)NC(=O)[C@@H](Cc3ccccc3)NC(=O)[C@H](N)Cc3ccccc3)CC2)C1 [HSK21542, 7-(D-phenylalanyl-D-phenylalanyl-D-leucyl-D-lysyl)-2-acetyl-2,7-diazaspiro (3.5)nonane]
[1]
  EC50: 0.00241 nM
[2]
  effect on locomotor activity / total distance traveled: did not significantly affect
[3]
  inhibition at 10 µM: -8%
[4]
  inhibition at 10 µM: 12%
[5]
  inhibition at 10 µM: -1%
[6]
  inhibition at 10 µM: 9%
[7]
  inhibition at 10 µM: 17%
[8]
  inhibition at 10 µM: 11%
[9]
  inhibition at 10 µM: 0%
[10]
  inhibition at 10 µM: 6%
[11]; HEK-293 membranes expressing human KOR, 0.6 nM [3H]diprenorphine, 25°C, 60 min, read-out: IC50 for inhibition of [3H]diprenorphine binding to KOR
  IC50: 0.54 nM
[11]; competitive binding kinetic model, [3H]diprenorphine, read-out: Kd for binding to KOR (binding kinetics)
  Kd: 0.068 nM
[12]
  effect on respiratory rate: no obvious effects
[13]
  Therapeutic index: 116.6
